# Data: ChEMBL document CHEMBL3632532, “Beyond the affinity for protein kinase C: exploring 2-phenyl-3-hydroxypropyl pivalate analogues as C1 domain-targeting ligands” (Medchemcomm, 2015)
# Columns and labels:
# [1] = target: T1, Protein kinase C alpha type (Homo sapiens, UniProt P17252); test: Displacement of [3H]PDBu from recombinant human PKCalpha C1 domain expressed in baculovirus infected insect Sf9 cells assessed as residual radiolabeled binding at 100 uM after 10 mins by liquid scintillation counting analysis relative to control
# [2] = target: T1, Protein kinase C alpha type; test: Displacement of [3H]PDBu from recombinant human PKCalpha C1 domain expressed in baculovirus infected insect Sf9 cells at 100 uM after 10 mins by liquid scintillation counting analysis relative to control
# [3] = target: T2, Protein kinase C delta type (Homo sapiens, UniProt Q05655); test: Displacement of [3H]PDBu from recombinant human PKCdelta C1 domain expressed in baculovirus infected insect Sf9 cells at 100 uM after 10 mins by liquid scintillation counting analysis relative to control
# Target sequence in this assay (Q05655 whole entry, looked up, the tested form may be a part): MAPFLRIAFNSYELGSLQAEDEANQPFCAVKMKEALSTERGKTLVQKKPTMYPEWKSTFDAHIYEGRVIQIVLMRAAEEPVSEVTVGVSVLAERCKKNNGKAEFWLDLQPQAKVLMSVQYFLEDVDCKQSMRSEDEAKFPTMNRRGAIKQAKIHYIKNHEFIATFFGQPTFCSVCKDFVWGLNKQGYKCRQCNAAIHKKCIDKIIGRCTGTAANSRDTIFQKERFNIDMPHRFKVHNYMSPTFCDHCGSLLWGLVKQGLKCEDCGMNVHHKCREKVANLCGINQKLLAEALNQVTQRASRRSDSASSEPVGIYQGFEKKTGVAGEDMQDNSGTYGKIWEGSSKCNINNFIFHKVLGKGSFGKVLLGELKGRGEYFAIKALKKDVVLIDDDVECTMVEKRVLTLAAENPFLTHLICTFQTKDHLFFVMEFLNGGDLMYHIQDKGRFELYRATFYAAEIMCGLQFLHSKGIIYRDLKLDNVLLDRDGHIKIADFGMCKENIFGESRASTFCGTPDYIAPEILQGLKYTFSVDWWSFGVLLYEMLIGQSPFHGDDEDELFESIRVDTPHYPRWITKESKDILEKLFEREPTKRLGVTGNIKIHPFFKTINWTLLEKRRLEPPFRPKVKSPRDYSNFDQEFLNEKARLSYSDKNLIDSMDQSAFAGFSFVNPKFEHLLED
# [4] = target: T2, Protein kinase C delta type; test: Displacement of [3H]PDBu from recombinant human PKCdelta C1 domain expressed in baculovirus infected insect Sf9 cells assessed as residual radiolabeled binding at 100 uM after 10 mins by liquid scintillation counting analysis relative to control
# Target sequence in this assay (Q05655 whole entry, looked up, the tested form may be a part): as above
# [5] = target: T1, Protein kinase C alpha type; test: Displacement of [3H]PDBu from recombinant human PKCalpha C1 domain expressed in baculovirus infected insect Sf9 cells after 10 mins by liquid scintillation counting analysis
# [6] = target: T2, Protein kinase C delta type; test: Displacement of [3H]PDBu from recombinant human PKCdelta C1 domain expressed in baculovirus infected insect Sf9 cells after 10 mins by liquid scintillation counting analysis
smiles,measurement,setting,value
CN(Cc1ccccc1)C(=O)CC(CO)c1ccc(OCc2ccccc2)cc1 (stereo not drawn),Activity,[1],80.6%
CCN(CC)C(=O)CC(CO)c1ccc(OCc2ccccc2)cc1 (stereo not drawn),Activity,[1],100%
"O=C(Cc1ccccc1)OCC(CO)c1ccc(OCc2ccccc2)cc1 (single isomer, unassigned)",inhibition,[2],27.3%
same,inhibition,[3],27.3%
CN(Cc1ccccc1)C(=O)CC(CO)c1ccc(-c2ccccc2)cc1 (stereo not drawn),Activity,[1],76.1%
O=C(CC(CO)c1cccc(OCc2ccccc2)c1)N1CCOCC1 (stereo not drawn),Activity,[1],99.7%
O=C(CC(CO)c1ccc(OCc2ccccc2)cc1)N1CCOCC1 (stereo not drawn),Activity,[1],107%
CN(Cc1ccccc1)C(=O)CC(CO)c1cccc(OCc2ccccc2)c1 (stereo not drawn),Activity,[1],72.4%
O=C(CC(CO)c1ccc(-c2ccccc2)cc1)OCc1ccccc1 (stereo not drawn),Activity,[1],64.4%
same,Residual [3H]PDBu binding,[4],56.7%
same,inhibition,[5],Dose-dependent effect
same,inhibition,[6],Dose-dependent effect
"CC(C)(C)C(=O)OCC(CO)c1ccc(OCc2ccccc2)cc1 (single isomer, unassigned)",inhibition,[2],36.3%
same,inhibition,[3],36.3%
CCN(CC)C(=O)CC(CO)c1ccc(-c2ccccc2)cc1 (stereo not drawn),Activity,[1],84.4%
O=C(CC(CO)c1ccc(OCc2ccccc2)cc1)OCc1ccccc1 (stereo not drawn),Activity,[1],73.9%
same,Residual [3H]PDBu binding,[4],61.6%
same,inhibition,[5],Dose-dependent effect
same,inhibition,[6],Dose-dependent effect
O=C(CC(CO)c1cccc(OCc2ccccc2)c1)OCc1ccccc1 (stereo not drawn),Activity,[1],67.4%
same,Residual [3H]PDBu binding,[4],52.5%
same,inhibition,[5],Dose-dependent effect
same,inhibition,[6],Dose-dependent effect
"O=C(Cc1ccccc1)OCC(CO)c1ccc(OCc2ccccc2)cc1 (single isomer, unassigned; (-))",inhibition,[2],26.3%
same,inhibition,[3],26.3%
O=C(CC(CO)c1ccc(-c2ccccc2)cc1)N1CCOCC1 (stereo not drawn),Activity,[1],86.6%
O=C(Cc1ccccc1)OCC(CO)c1ccc(OCc2ccccc2)cc1 (racemic) [listing 1 of 2 here],Activity,[1],51.3%
same,Residual [3H]PDBu binding,[4],34.8%
same,inhibition,[5],Dose-dependent effect
CC(C)(C)C(=O)OCC(CO)c1ccc(OCc2ccccc2)cc1 (racemic) [listing 1 of 2 here],IC50,[5],37.5 µM
same,IC50,[6],33.2 µM
O=C(Cc1ccccc1)OCC(CO)c1ccc(OCc2ccccc2)cc1 (racemic) [listing 2 of 2 here],IC50,[5],73.9 µM
same,IC50,[6],39.9 µM
CC(C)(C)C(=O)OCC(CO)c1ccc(OCc2ccccc2)cc1 (racemic) [listing 2 of 2 here],Activity,[1],41.6%
same,Residual [3H]PDBu binding,[4],29.3%
"CC(C)(C)C(=O)OCC(CO)c1ccc(OCc2ccccc2)cc1 (single isomer, unassigned; (+))",inhibition,[2],34.6%
same,inhibition,[3],34.6%
CCN(CC)C(=O)CC(CO)c1cccc(OCc2ccccc2)c1 (stereo not drawn),Activity,[1],90%
